Test results: US10011573B2, “Human androgen receptor DNA-binding domain (DBD) compounds as therapeutics and methods for their use” (The University of British Columbia, priority 2014, dated 2018)

Experiments:
[1] = test system: FKBP5; assay: Western blot FKBP5 protein in R1-AD1 cells; assay type: cell-based, human
Description: Cell lysates (40 μl) from luciferase assays (96-well plate) were separated on a 10% SDS-polyacrylamide mini gel. Protein was transferred to methanol-charged PVDF membranes and probed with anti-AR441 (mouse, Sigma™) monoclonal primary antibody. Blots were also probed with polyclonal anti-actin (rabbit, Sigma™) to show equal loading and polyclonal anti-PARP/anti-cleaved PARP (rabbit, Sigma™) to test for induction of apoptosis. Lysates from CWR-R1 cells were additionally probed with polyclonal anti-FKBP5 (rabbit, Sigma™) following 2 days of incubation with compounds.

[2] = biological target: T1, YFP-V7 (Homo sapiens, UniProt P10275); assay: Luciferase assay with YFP-V7 in PC3 cells; assay type: cell-based
T1 construct: expressed in transfected cells; host or cells: PC3
From the text: the underlined primer sections anneal to the specified template, although their 5′-extensions (italicized) are complementary to the corresponding primer sequence of the other PCR. Plasmid assembly is achieved by mixing the PCR products from each reaction (Klock, H. E. et al. (2008) Combining the polymerase incomplete primer extension method for cloning and mutagenesis with microscreening to accelerate structural genomics efforts. Proteins 71, 982-994), followed by transformation into chemically competent bacteria. A similar strategy was used to clone the AR-DBD+hinge into the Pan4 vector (avidity) expressing the N-terminal biotinylation sequence ([…] ) and C-terminal His tag. YFP-AR plasmid was a gift from Dr. Jan Trapman (van Royen, M. E. et al. (2012) Stepwise androgen receptor dimerization. J. Cell Sci. 125, 1970-1979) and is based on pEYFP-C1 (Clontech™). YFP-V7 was constructed by polymerase incomplete primer extension method using the following primers and templates: AR-V7 insert from pcDNA3. AR-V7 template

[3] = biological target: T2, AR-DBD+hinge / ARE dsDNA (Homo sapiens, UniProt P10275); assay: EMSA (gel shift) assay; assay type: biochemical; design: His6 (N); made in house; host or cells: E. coli BL21 (DE3)
T2 sequence (P10275 558-689): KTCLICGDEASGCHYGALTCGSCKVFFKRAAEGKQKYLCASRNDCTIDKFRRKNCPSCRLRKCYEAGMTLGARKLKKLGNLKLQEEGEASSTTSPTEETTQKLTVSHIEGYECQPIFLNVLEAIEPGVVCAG
Description: The plasmid encoding the AR-DBD+hinge was transformed into BL21 (DE3). BL21 cells designated for expression of biotin-labeled AR-DBD+hinge were co-transformed with the Pan4 AR-DBD+hinge (ampicillin selection) and biotin ligase expression vectors (pBir-Acm, chloramphenicol selection). Single colonies were grown in 2 liters of LB media supplemented with 50 μg/ml ampicillin and 35 μg/ml chloramphenicol (where appropriate) to A600 nm=0.6 before induction with 0.1 mM isopropyl β-D-1-thiogalactopyranoside for 3 h at 37° C. Cultures expressing the AR-DBD with the biotinylation sequence were simultaneously supplemented with 0.150 mM biotin during the induction step. Cell pellets were resuspended in ˜20 ml of 50 mM Tris-HCl, pH 8.0, 300 mM NaCl, 5% glycerol (Buffer A) supplemented with 10 mM imidazole and incubated with 0.1 mg/ml chicken egg white lysozyme (Sigma™) and 0.1 mM PMSF protease inhibitor for 30 min on ice. Cell lysis was achieved by sonication, followed by centrifugation at 13,000×g for 30 min at 4° C. The supernatant was rotated with 2 ml of nickel-agarose beads (GE Healthcare™) for 1 h at 4° C. and then directly loaded onto a Poly-Prep 10-ml gravity chromatography column (Bio-Rad™). Washing was performed with 2×4 ml of Buffer A supplemented with 20 mM imidazole. Pure proteins were eluted in 500-μl fractions with 2 ml of Buffer A containing 250 mM imidazole. […]

[4] = biological target: T2, AR-DBD+hinge / ARE dsDNA; assay: Biolayer interferometry analysis of dsDNA (ARE) association with biotinylated AR-DBD+hinge; assay type: binding; design: His tag (C); made in house; host or cells: E. coli BL21 co-transformed with biotin ligase vector (pBir-Acm); conditions: 50 μM compound
Description: The plasmid encoding the AR-DBD+hinge was transformed into BL21 (DE3). BL21 cells designated for expression of biotin-labeled AR-DBD+hinge were co-transformed with the Pan4 AR-DBD+hinge (ampicillin selection) and biotin ligase expression vectors (pBir-Acm, chloramphenicol selection). Single colonies were grown in 2 liters of LB media supplemented with 50 μg/ml ampicillin and 35 μg/ml chloramphenicol (where appropriate) to A600 nm=0.6 before induction with 0.1 mM isopropyl β-D-1-thiogalactopyranoside for 3 h at 37° C. Cultures expressing the AR-DBD with the biotinylation sequence were simultaneously supplemented with 0.150 mM biotin during the induction step. Cell pellets were resuspended in ˜20 ml of 50 mM Tris-HCl, pH 8.0, 300 mM NaCl, 5% glycerol (Buffer A) supplemented with 10 mM imidazole and incubated with 0.1 mg/ml chicken egg white lysozyme (Sigma™) and 0.1 mM PMSF protease inhibitor for 30 min on ice. Cell lysis was achieved by sonication, followed by centrifugation at 13,000×g for 30 min at 4° C. The supernatant was rotated with 2 ml of nickel-agarose beads (GE Healthcare™) for 1 h at 4° C. and then directly loaded onto a Poly-Prep 10-ml gravity chromatography column (Bio-Rad™). Washing was performed with 2×4 ml of Buffer A supplemented with 20 mM imidazole. Pure proteins were eluted in 500-μl fractions with 2 ml of Buffer A containing 250 mM imidazole.
Biolayer interferometry analysis on a ForteBio Octet Red™ instrument was carried out using biotinylated AR-DBD+hinge in Buffer A with 5% DMSO throughout all experiments. The DBD (0.1 mg/ml) was loaded onto streptavidin sensors in 200 μl of buffer for 30 min, followed by blocking of free streptavidin sites with biocytin (10 μg/ml) for 10 min. DBD-loaded sensors were then pre-equilibrated in 50 μM compound or 5% DMSO alone for 100 s in the same buffer. The kinetics of DNA association were monitored by moving sensors into wells containing dsDNA (ARE, 3 μM) supplemented with 50 μM compound for 120 s. This was followed by dissociation in buffer+compound, but lacking DNA, for an additional 120 s. Biocytin-blocked control sensors (no AR-DBD) were subjected to the same experimental conditions, and nonspecific interactions with dsDNA were subtracted from each curve.

T1 sequence (P10275 1-644 isoform P10275-3): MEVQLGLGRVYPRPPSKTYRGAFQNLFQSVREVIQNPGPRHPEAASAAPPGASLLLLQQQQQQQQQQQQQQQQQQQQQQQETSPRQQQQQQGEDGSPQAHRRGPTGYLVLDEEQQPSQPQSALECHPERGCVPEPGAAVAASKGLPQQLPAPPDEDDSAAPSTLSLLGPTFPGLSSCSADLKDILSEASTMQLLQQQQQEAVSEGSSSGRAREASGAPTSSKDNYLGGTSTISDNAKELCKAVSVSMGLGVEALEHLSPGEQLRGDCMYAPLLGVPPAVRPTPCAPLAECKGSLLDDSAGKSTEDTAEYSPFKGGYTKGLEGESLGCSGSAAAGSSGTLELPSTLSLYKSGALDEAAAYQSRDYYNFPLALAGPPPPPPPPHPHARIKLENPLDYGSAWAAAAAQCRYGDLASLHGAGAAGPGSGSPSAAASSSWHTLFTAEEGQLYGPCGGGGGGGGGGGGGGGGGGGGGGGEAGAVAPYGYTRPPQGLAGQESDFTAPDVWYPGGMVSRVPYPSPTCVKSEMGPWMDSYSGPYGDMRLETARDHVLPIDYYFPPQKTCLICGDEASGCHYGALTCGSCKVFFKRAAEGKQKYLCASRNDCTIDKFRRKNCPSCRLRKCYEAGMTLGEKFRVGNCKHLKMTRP

Row | Structure (SMILES) | FKBP5 protein expression, R1-AD1 cells [1] | inhibition of YFP-V7 driven luciferase expression [2] | protein-DNA complex formation (gel shift) [3] | dsDNA dissociation from AR-DBD [4] | rate of dsDNA association with AR-DBD [4]
1 | c1ccc(-c2csc(N3CCOCC3)n2)cc1 [Compound 14228, 4-(4-phenylthiazol-2-yl)morpholine] | reduced | could be inhibited | could not prevent protein-DNA complex formation | relatively unchanged | significantly slower rate of dsDNA binding
2 | Brc1ncn(-c2csc(N3CCOCC3)n2)c1Br [Compound 14449] | reduced | could be inhibited | could not prevent protein-DNA complex formation | relatively unchanged | significantly slower rate of dsDNA binding
